# Laboratory results reported in ChEMBL document CHEMBL3885861, “Open TG-GATES”.
# Species on record: Rattus norvegicus
# Test: Open TG-GATES - Regimen: Daily Repeat
# Type: toxicity, organism-based, Sprague-Dawley
# Parameters: regimen Daily Repeat, gender Male, age 6 weeks
# Details: in vivo, po, 0 mg/kg, route gavage, dose level Control; for APTT / Bas / Eos / Fbg / Hb / Ht / Lym / MCH / MCHC / MCV / Mono / Neu / PT / Plat / RBC / Ret / WBC: tissue Blood; for KIDNEY_L / KIDNEY_R / KIDNEY_TOTAL: tissue Kidney; for LIVER: tissue Liver; for A/G / ALP / ALT / AST / BUN / CRE / Ca / Cl / DBIL / GLC / IP / K / LDH / Na / PL / RALB / TBIL / TC / TG / TP / gamma-GTP: tissue Plasma
compound,measurement,setting,value
CC(C)(S)[C@@H](N)C(=O)O [PENICILLAMINE],TERMINAL_BW,"72 h, time 3 day",235.9 g
same,APTT,"72 h, time 3 day",15.9 s
same,Bas,"72 h, time 3 day",0.2%
same,Eos,"72 h, time 3 day",0.6%
same,Fbg,"72 h, time 3 day",305 mg/dL
same,Hb,"72 h, time 3 day",13.7 g/dL
same,Ht,"72 h, time 3 day",41.9%
same,Lym,"72 h, time 3 day",75.8%
same,MCH,"72 h, time 3 day",21.1 pg
same,MCHC,"72 h, time 3 day",32.7%
same,MCV,"72 h, time 3 day",64.6 fL
same,Mono,"72 h, time 3 day",3%
same,Neu,"72 h, time 3 day",19.6%
same,PT,"72 h, time 3 day",13.8 s
same,Plat,"72 h, time 3 day",131.2 x10_4/uL
same,RBC,"72 h, time 3 day",648.8 x10_4/ul
same,Ret,"72 h, time 3 day",7.1%
same,WBC,"72 h, time 3 day",113.2 x10_2/uL
same,KIDNEY_L,"72 h, time 3 day",0.9 g
same,KIDNEY_R,"72 h, time 3 day",0.9 g
same,KIDNEY_TOTAL,"72 h, time 3 day",1.9 g
same,LIVER,"72 h, time 3 day",11.2 g
same,A/G,"72 h, time 3 day",0.9
same,ALP,"72 h, time 3 day",1527 IU/L
same,ALT,"72 h, time 3 day",43.4 IU/L
same,AST,"72 h, time 3 day",69 IU/L
same,BUN,"72 h, time 3 day",14.6 mg/dL
same,CRE,"72 h, time 3 day",0.2 mg/dL
same,Ca,"72 h, time 3 day",11.1 mg/dL
same,Cl,"72 h, time 3 day",106.2 meq/L
same,DBIL,"72 h, time 3 day",0.014 mg/dL
same,GLC,"72 h, time 3 day",177.8 mg/dL
same,IP,"72 h, time 3 day",6.8 mg/dL
same,K,"72 h, time 3 day",4.1 meq/L
same,LDH,"72 h, time 3 day",84.4 IU/L
same,Na,"72 h, time 3 day",144.2 meq/L
same,PL,"72 h, time 3 day",171.8 mg/dL
same,RALB,"72 h, time 3 day",2.8 g/dL
same,TBIL,"72 h, time 3 day",0.018 mg/dL
same,TC,"72 h, time 3 day",90.2 mg/dL
same,TG,"72 h, time 3 day",118.8 mg/dL
same,TP,"72 h, time 3 day",5.8 g/dL
same,gamma-GTP,"72 h, time 3 day",1 IU/L
same,TERMINAL_BW,"[…], time 7 day",275.3 g
same,TERMINAL_BW,"[…], time 14 day",335.9 g
same,TERMINAL_BW,"[…], time 28 day",405.5 g
same,APTT,"[…], time 7 day",17.9 s
same,Bas,"[…], time 7 day",0%
same,Eos,"[…], time 7 day",1%
same,Fbg,"[…], time 7 day",320.4 mg/dL
same,Hb,"[…], time 7 day",14.2 g/dL
same,Ht,"[…], time 7 day",43.2%
same,Lym,"[…], time 7 day",72.8%
same,MCH,"[…], time 7 day",21 pg
same,MCHC,"[…], time 7 day",32.8%
same,MCV,"[…], time 7 day",64.1 fL
same,Mono,"[…], time 7 day",2.8%
same,Neu,"[…], time 7 day",22.4%
same,PT,"[…], time 7 day",13.9 s
same,Plat,"[…], time 7 day",121.1 x10_4/uL
same,RBC,"[…], time 7 day",674.8 x10_4/ul
same,Ret,"[…], time 7 day",5.9%
same,WBC,"[…], time 7 day",98.3 x10_2/uL
same,APTT,"[…], time 14 day",19.2 s
same,Bas,"[…], time 14 day",0%
same,Eos,"[…], time 14 day",1.2%
same,Fbg,"[…], time 14 day",292.4 mg/dL
same,Hb,"[…], time 14 day",14.8 g/dL
same,Ht,"[…], time 14 day",43.7%
same,Lym,"[…], time 14 day",80.4%
same,MCH,"[…], time 14 day",20.4 pg
same,MCHC,"[…], time 14 day",33.9%
same,MCV,"[…], time 14 day",60.2 fL
same,Mono,"[…], time 14 day",2%
same,Neu,"[…], time 14 day",15.8%
same,PT,"[…], time 14 day",14.2 s
same,Plat,"[…], time 14 day",122.3 x10_4/uL
same,RBC,"[…], time 14 day",724.8 x10_4/ul
same,Ret,"[…], time 14 day",4.5%
same,WBC,"[…], time 14 day",90.4 x10_2/uL
same,APTT,"[…], time 28 day",18.4 s
same,Bas,"[…], time 28 day",0%
same,Eos,"[…], time 28 day",1.4%
same,Fbg,"[…], time 28 day",300.8 mg/dL
same,Hb,"[…], time 28 day",15.6 g/dL
same,Ht,"[…], time 28 day",45.4%
same,Lym,"[…], time 28 day",79.2%
same,MCH,"[…], time 28 day",19.8 pg
same,MCHC,"[…], time 28 day",34.2%
same,MCV,"[…], time 28 day",58 fL
same,Mono,"[…], time 28 day",2.2%
same,Neu,"[…], time 28 day",16.2%
same,PT,"[…], time 28 day",14.1 s
same,Plat,"[…], time 28 day",103.8 x10_4/uL
same,RBC,"[…], time 28 day",783.8 x10_4/ul
same,Ret,"[…], time 28 day",2.6%
same,WBC,"[…], time 28 day",93.7 x10_2/uL
same,KIDNEY_L,"[…], time 7 day",1.1 g
same,KIDNEY_R,"[…], time 7 day",1.1 g
same,KIDNEY_TOTAL,"[…], time 7 day",2.2 g
same,KIDNEY_L,"[…], time 14 day",1.3 g
same,KIDNEY_R,"[…], time 14 day",1.3 g
same,KIDNEY_TOTAL,"[…], time 14 day",2.6 g
same,KIDNEY_L,"[…], time 28 day",1.4 g
same,KIDNEY_R,"[…], time 28 day",1.4 g
same,KIDNEY_TOTAL,"[…], time 28 day",2.8 g
same,LIVER,"[…], time 7 day",13 g
same,LIVER,"[…], time 14 day",15.3 g
same,LIVER,"[…], time 28 day",16.3 g
same,A/G,"[…], time 7 day",0.9
same,ALP,"[…], time 7 day",1428 IU/L
same,ALT,"[…], time 7 day",45.4 IU/L
same,AST,"[…], time 7 day",68.6 IU/L
same,BUN,"[…], time 7 day",15 mg/dL
same,CRE,"[…], time 7 day",0.2 mg/dL
same,Ca,"[…], time 7 day",10.9 mg/dL
same,Cl,"[…], time 7 day",105.2 meq/L
same,DBIL,"[…], time 7 day",0.018 mg/dL
same,GLC,"[…], time 7 day",189.8 mg/dL
same,IP,"[…], time 7 day",6.6 mg/dL
same,K,"[…], time 7 day",4 meq/L
same,LDH,"[…], time 7 day",71.6 IU/L
same,Na,"[…], time 7 day",142.2 meq/L
same,PL,"[…], time 7 day",159 mg/dL
same,RALB,"[…], time 7 day",2.8 g/dL
same,TBIL,"[…], time 7 day",0.028 mg/dL
same,TC,"[…], time 7 day",74.4 mg/dL
same,TG,"[…], time 7 day",131.2 mg/dL
same,TP,"[…], time 7 day",5.8 g/dL
same,gamma-GTP,"[…], time 7 day",0.8 IU/L
same,A/G,"[…], time 14 day",0.9
same,ALP,"[…], time 14 day",1246.2 IU/L
same,ALT,"[…], time 14 day",41.4 IU/L
same,AST,"[…], time 14 day",68.2 IU/L
same,BUN,"[…], time 14 day",16.2 mg/dL
same,CRE,"[…], time 14 day",0.2 mg/dL
same,Ca,"[…], time 14 day",10.9 mg/dL
same,Cl,"[…], time 14 day",105.2 meq/L
same,DBIL,"[…], time 14 day",0.01 mg/dL
same,GLC,"[…], time 14 day",189 mg/dL
same,IP,"[…], time 14 day",6.2 mg/dL
same,K,"[…], time 14 day",4.2 meq/L
same,LDH,"[…], time 14 day",107.4 IU/L
same,Na,"[…], time 14 day",143 meq/L
same,PL,"[…], time 14 day",155.6 mg/dL
same,RALB,"[…], time 14 day",2.8 g/dL
same,TBIL,"[…], time 14 day",0.024 mg/dL
same,TC,"[…], time 14 day",71.4 mg/dL
same,TG,"[…], time 14 day",150.4 mg/dL
same,TP,"[…], time 14 day",6.1 g/dL
same,gamma-GTP,"[…], time 14 day",0.8 IU/L
same,A/G,"[…], time 28 day",0.9
same,ALP,"[…], time 28 day",945.4 IU/L
same,ALT,"[…], time 28 day",29.6 IU/L
same,AST,"[…], time 28 day",58.4 IU/L
same,BUN,"[…], time 28 day",15.4 mg/dL
same,CRE,"[…], time 28 day",0.3 mg/dL
same,Ca,"[…], time 28 day",10.9 mg/dL
same,Cl,"[…], time 28 day",105.8 meq/L
same,DBIL,"[…], time 28 day",0.008 mg/dL
same,GLC,"[…], time 28 day",185 mg/dL
same,IP,"[…], time 28 day",6 mg/dL
same,K,"[…], time 28 day",3.6 meq/L
same,LDH,"[…], time 28 day",51.6 IU/L
same,Na,"[…], time 28 day",144 meq/L
same,PL,"[…], time 28 day",147.4 mg/dL
same,RALB,"[…], time 28 day",2.9 g/dL
same,TBIL,"[…], time 28 day",0.052 mg/dL
same,TC,"[…], time 28 day",67.6 mg/dL
same,TG,"[…], time 28 day",140.8 mg/dL
same,TP,"[…], time 28 day",6.3 g/dL
same,gamma-GTP,"[…], time 28 day",1.2 IU/L
